Test results taken from the supplement of paper PMC10307832.

Assays:
Assay in all cases: relative viability (nuclei count vs DMSO), 5 days (fraction); higher = more cells survive
QS11 + AZD7762 = compound: C1CC2=C(C1)C=C(C=C2)OC3=NC(=C4C(=N3)N(C=N4)CC5=CC=C(C=C5)C6=CC=CC=C6)N[C@@H](CC7=CC=CC=C7)CO [QS11] + NC(=O)Nc1cc(-c2cccc(F)c2)sc1C(=O)N[C@H]1CCCNC1 [AZD7762] (partner 0.2 µM)
How it was run: (§1)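 Medians of duplicate plates are given as relative viability. That measure is the nuclei count in treated wells divided by the count in vehicle wells. Counts were taken on 4× images of lung cancer cell lines in 1536-well plates, 5 days after pin-tool dosing the day after seeding with one drug alone or a fixed anchor-drug dose plus five library-drug doses (not always all listed) in √10 steps.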

QS11 + Lapatinib = compound: C1CC2=C(C1)C=C(C=C2)OC3=NC(=C4C(=N3)N(C=N4)CC5=CC=C(C=C5)C6=CC=CC=C6)N[C@@H](CC7=CC=CC=C7)CO [QS11] + CS(=O)(=O)CCNCc1ccc(-c2ccc3ncnc(Nc4ccc(OCc5cccc(F)c5)c(Cl)c4)c3c2)o1 [Lapatinib] (partner 2 µM)
How it was run: as §1

Darinaparsin + Olaparib = compound: C[As](C)SC[C@H](NC(=O)CC[C@H](N)C(=O)O)C(=O)NCC(=O)O [Darinaparsin] + O=C(c1cc(Cc2n[nH]c(=O)c3ccccc23)ccc1F)N1CCN(C(=O)C2CC2)CC1 [Olaparib] (partner 8 µM)
How it was run: as §1

[1] = compound: C[As](C)SC[C@H](NC(=O)CC[C@H](N)C(=O)O)C(=O)NCC(=O)O [Darinaparsin] + CC(=O)Nc1cccc(-n2c(=O)n(C3CC3)c(=O)c3c(Nc4ccc(I)cc4F)n(C)c(=O)c(C)c32)c1 [Trametinib] (partner 0.02 µM)
How it was run: as §1

| Cell Line | relative viability (QS11 + AZD7762; first compound 0.08 µM) | relative viability (QS11 + AZD7762; first compound 0.253 µM) | relative viability (QS11 + AZD7762; first compound 2.53 µM) | relative viability (QS11 + AZD7762; first compound 8 µM) | relative viability (QS11 + Lapatinib; first compound 0.08 µM) | relative viability (QS11 + Lapatinib; first compound 0.253 µM) | relative viability (QS11 + Lapatinib; first compound 2.53 µM) | relative viability (QS11 + Lapatinib; first compound 8 µM) | relative viability (Darinaparsin + Olaparib; first compound 0.08 µM) | relative viability (Darinaparsin + Olaparib; first compound 2.53 µM) | relative viability (Darinaparsin + Olaparib; first compound 8 µM) | relative viability ([1]; first compound 0.08 µM) | relative viability ([1]; first compound 2.53 µM) | relative viability ([1]; first compound 8 µM) | relative viability (QS11 + AZD7762; first compound 0.8 µM) | relative viability (QS11 + Lapatinib; first compound 0.8 µM) | relative viability (Darinaparsin + Olaparib; first compound 0.8 µM) | relative viability ([1]; first compound 0.8 µM) |
| --- | --- | --- | --- | --- | --- | --- | --- | --- | --- | --- | --- | --- | --- | --- | --- | --- | --- | --- |
| HCC-366 | 0.28 | 0.259 | 0.271 | 0.192 | 0.97 | 0.992 | 0.67 | 0.246 | 0.502 | 0.328 | 0.42 | 0.393 | 0.336 | 0.378 |  |  |  |  |
| NCI-H596 | 1.07 | 0.94 | 1.03 | 1.27 | 1 | 1.02 | 1.03 | 1.05 | 0.634 | 0.667 | 0.774 | 0.762 | 0.856 | 0.755 | 1.22 | 1.02 | 0.675 | 0.748 |
| NCI-H1944 | 0.49 | 0.519 | 0.421 | 0.39 | 0.857 | 0.704 | 0.89 | 0.598 | 0.458 | 0.363 | 0.404 | 0.404 | 0.371 | 0.408 |  |  | 0.44 | 0.401 |
| HCC-827 | 0.194 | 0.201 | 0.307 | 0.187 | 0.176 | 0.226 | 0.243 | 0.227 | 0.784 | 0.65 | 0.759 | 0.578 | 0.566 | 0.508 | 0.234 | 0.158 | 0.638 | 0.502 |
| NCI-H727 | 0.694 | 0.581 | 0.727 | 0.612 | 1 | 0.714 | 0.665 | 0.639 | 0.388 | 0.726 | 0.612 | 0.372 | 0.381 | 0.383 | 0.584 | 0.892 | 0.561 | 0.397 |
| NCI-H1915 | 0.693 | 0.702 | 0.753 | 0.634 | 1.04 | 1.02 | 1.02 | 0.802 | 0.259 | 0.269 | 0.272 | 0.336 | 0.288 | 0.3 |  |  | 0.22 | 0.301 |
| NCI-H2347 | 0.698 | 0.694 | 0.834 | 0.807 | 0.867 | 0.93 | 0.859 | 1.02 | 0.646 | 0.559 | 0.577 | 0.249 | 0.307 | 0.242 | 0.692 | 0.795 | 0.472 | 0.266 |
| NCI-H647 | 0.441 | 0.302 | 0.385 | 0.565 | 0.939 | 1.12 | 1.1 | 0.711 | 0.681 | 0.382 | 0.604 | 0.537 | 0.385 | 0.655 | 0.592 | 0.916 | 0.601 | 0.512 |
| CAL-12T | 0.736 | 0.572 | 0.596 | 0.551 | 0.631 | 0.601 | 0.652 | 0.68 | 0.875 | 0.822 | 0.698 | 0.333 | 0.383 | 0.306 | 0.546 | 0.595 | 0.617 | 0.376 |
